Test results from PubChem BioAssay (NCI).
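GI50 is the concentration that inhibits growth by half. TGI denotes the concentration required for complete inhibition of growth.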

What was measured:
Test in all cases: DTP human tumour cell line panel, 384-well format
SNB-19 CNS = test system: SNB-19 CNS
CCRF-CEM leukemia = test system: CCRF-CEM leukemia
HCT-116 colon = test system: HCT-116 colon
CAKI-1 renal = test system: CAKI-1 renal
ACHN renal = test system: ACHN renal
LOX IMVI melanoma = test system: LOX IMVI melanoma
SK-MEL-5 melanoma = test system: SK-MEL-5 melanoma
NCI-H522 lung = test system: NCI-H522 lung
UACC-257 melanoma = test system: UACC-257 melanoma
HL-60(TB) leukemia = test system: HL-60(TB) leukemia
DU-145 prostate = test system: DU-145 prostate
U251 glioblastoma = test system: U251 glioblastoma
M14 melanoma = test system: M14 melanoma
NCI-H460 NSCLC = test system: NCI-H460 NSCLC
SF-539 CNS = test system: SF-539 CNS
BT-549 breast = test system: BT-549 breast
MDA-MB-468 breast = test system: MDA-MB-468 breast
HCT-15 colon = test system: HCT-15 colon
HOP-62 NSCLC = test system: HOP-62 NSCLC
A549 NSCLC = test system: A549 NSCLC
PC-3 prostate = test system: PC-3 prostate
HCC-2998 colon = test system: HCC-2998 colon
K-562 leukemia = test system: K-562 leukemia
SK-OV-3 ovarian = test system: SK-OV-3 ovarian
MOLT-4 leukemia = test system: MOLT-4 leukemia
KM12 colon = test system: KM12 colon
MDA-MB-435 melanoma = test system: MDA-MB-435 melanoma
SK-MEL-2 melanoma = test system: SK-MEL-2 melanoma
SN12C renal = test system: SN12C renal

Cc1[nH]c(/C=C2\C(=O)Nc3ccc(S(=O)(=O)Cc4c(Cl)cccc4Cl)cc32)c(C)c1C(=O)N1CCC[C@@H]1CN1CCCC1
TGI (SNB-19 CNS): 3.36 µM
GI50 (CCRF-CEM leukemia): 0.681 µM
TGI (CCRF-CEM leukemia): 1.9 µM
GI50 (HCT-116 colon): 1.56 µM
TGI (HCT-116 colon): 2.91 µM
GI50 (CAKI-1 renal): 1.53 µM
TGI (CAKI-1 renal): 2.86 µM
GI50 (ACHN renal): 1.6 µM
TGI (ACHN renal): 2.95 µM
GI50 (LOX IMVI melanoma): 2.02 µM
TGI (LOX IMVI melanoma): 3.46 µM
GI50 (SK-MEL-5 melanoma): 1.19 µM
TGI (SK-MEL-5 melanoma): 2.43 µM
GI50 (NCI-H522 lung): 1.98 µM
TGI (NCI-H522 lung): 3.4 µM
GI50 (UACC-257 melanoma): 1.42 µM
TGI (UACC-257 melanoma): 2.73 µM
GI50 (HL-60(TB) leukemia): 2.11 µM
TGI (HL-60(TB) leukemia): 3.54 µM
GI50 (DU-145 prostate): 1.85 µM
TGI (DU-145 prostate): 3.25 µM
GI50 (U251 glioblastoma): 1.81 µM
TGI (U251 glioblastoma): 3.22 µM
GI50 (M14 melanoma): 1.74 µM
TGI (M14 melanoma): 3.12 µM
GI50 (NCI-H460 NSCLC): 1.34 µM
TGI (NCI-H460 NSCLC): 2.63 µM
GI50 (SF-539 CNS): 1.74 µM
TGI (SF-539 CNS): 3.12 µM
GI50 (BT-549 breast): 1.56 µM
TGI (BT-549 breast): 2.9 µM
GI50 (MDA-MB-468 breast): 1.58 µM
TGI (MDA-MB-468 breast): 2.93 µM
GI50 (HCT-15 colon): 1.82 µM
TGI (HCT-15 colon): 3.23 µM
GI50 (HOP-62 NSCLC): 1.85 µM
TGI (HOP-62 NSCLC): 3.25 µM
GI50 (A549 NSCLC): 1.71 µM
TGI (A549 NSCLC): 3.1 µM
GI50 (PC-3 prostate): 1.72 µM
TGI (PC-3 prostate): 3.11 µM
GI50 (HCC-2998 colon): 1.99 µM
TGI (HCC-2998 colon): 3.42 µM
GI50 (K-562 leukemia): 1.72 µM
TGI (K-562 leukemia): 3.1 µM
GI50 (SK-OV-3 ovarian): 1.34 µM
TGI (SK-OV-3 ovarian): 2.63 µM
GI50 (MOLT-4 leukemia): 0.573 µM
TGI (MOLT-4 leukemia): 1.73 µM
GI50 (KM12 colon): 0.445 µM
TGI (KM12 colon): 1.5 µM
GI50 (MDA-MB-435 melanoma): 1.76 µM
TGI (MDA-MB-435 melanoma): 3.15 µM
GI50 (SK-MEL-2 melanoma): 1.24 µM
TGI (SK-MEL-2 melanoma): 2.49 µM
GI50 (SN12C renal): 1.5 µM
TGI (SN12C renal): 2.83 µM
